PubChem BioAssay (NCI)
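48-hour exposure; five concentrations; linearly interpolated endpoints. GI50 is the concentration that inhibits growth by half. The concentration for full growth arrest is given as TGI.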

Legend:
Assay in all cases: DTP human tumour cell line panel, 48 h
A549 NSCLC = test system: A549 NSCLC
BT-549 breast = test system: BT-549 breast
KM12 colon = test system: KM12 colon
SF-295 CNS = test system: SF-295 CNS
SN12C renal = test system: SN12C renal
SNB-19 CNS = test system: SNB-19 CNS
SNB-75 CNS = test system: SNB-75 CNS
UO-31 renal = test system: UO-31 renal

SMILES | GI50 (A549 NSCLC) | TGI (A549 NSCLC) | GI50 (BT-549 breast) | TGI (BT-549 breast) | GI50 (KM12 colon) | TGI (KM12 colon) | GI50 (SF-295 CNS) | TGI (SF-295 CNS) | GI50 (SN12C renal) | TGI (SN12C renal) | GI50 (SNB-19 CNS) | TGI (SNB-19 CNS) | GI50 (SNB-75 CNS) | TGI (SNB-75 CNS) | GI50 (UO-31 renal) | TGI (UO-31 renal)
O=C1NC(=NCc2ccccn2)S/C1=C\c1ccc2ncccc2c1 | 8.41 µM | > 25 µM | 9.23 µM | > 25 µM | 13.2 µM | > 25 µM | 14.7 µM | > 25 µM | 10.8 µM | > 25 µM | 10.7 µM | > 25 µM | 4.21 µM | 22.4 µM | 11.3 µM | > 25 µM
Cc1ccc(Cl)cc1Nc1nc(C(F)(F)F)ccc1C(=O)Oc1ccc(Cl)cc1 | 4.86 µM | 20.5 µM | 15.6 µM | 36.3 µM | 21.6 µM | 63.6 µM | 7.08 µM | 21.7 µM | 14.5 µM | 43.8 µM | 9.42 µM | > 100 µM | 6.57 µM | 23.3 µM | 16 µM | 41.8 µM
COc1cc(/C=C/C(=O)c2ccc(Nc3nc(Nc4ccc(F)cc4)nc(Nc4ccc(F)cc4)n3)cc2)cc(OC)c1OC | 8.27 µM | > 100 µM |  |  | 8.79 µM | > 100 µM | 28.8 µM | > 100 µM | 33.6 µM | > 100 µM | 76.6 µM | > 100 µM | > 100 µM | > 100 µM | 3.75 µM | > 100 µM
COc1ccccc1NC(=O)C1=C(C)NC(C)=C(C(=O)Nc2ccccc2OC)C1c1ccc(C(C)C)cc1 |  | > 100 µM |  |  |  | > 100 µM |  | > 100 µM |  | > 100 µM |  | > 100 µM |  | > 100 µM |  | > 100 µM
COc1ccc(/C=C(/C(=O)N2CCNCC2)c2cc(OC)c(OC)c(OC)c2)cc1O | 6.63 µM | > 100 µM | 4.22 µM | 48.4 µM | 3.18 µM | > 100 µM | 5.36 µM | 60.3 µM | 7.86 µM | > 100 µM | 3.91 µM | > 100 µM |  |  | 55.5 µM | > 100 µM
CC(=O)O[C@H]1CC[C@@]2(C)C(=CC[C@@H]3C2CC[C@]2(C)Nc4oncc4CC32)C1 (some centres undefined) |  | 83.6 µM |  |  |  | 61.4 µM |  | > 100 µM |  |  |  |  |  | > 100 µM |  | 70.7 µM
CCN1C(=O)N(c2c(F)c(OC)cc(OC)c2F)Cc2cnc3[nH]c(CN4CCOCC4)cc3c21 | 2.83 µM | > 100 µM | 0.0491 µM | 15.7 µM | 5.08 µM | > 100 µM | 3.83 µM | > 100 µM | 2.78 µM | 28.2 µM |  |  | 1.13 µM | 26.5 µM | 0.878 µM | > 100 µM
COc1ccc(C2CC(c3cc(OC)c(OC)c(OC)c3)=NN2)cc1 (centres undefined) | 6.23 µM | > 100 µM | 8.02 µM | > 100 µM | 4.49 µM | > 100 µM | 4.99 µM | > 100 µM | 31.4 µM | > 100 µM | 15.6 µM | > 100 µM |  |  | 4.82 µM | > 100 µM
Cc1cc(S(N)(=O)=O)c(S/C(=N\NS(=O)(=O)c2ccc(Cl)cc2)c2ccc(Cl)cc2)cc1Cl | 49.1 µM | > 100 µM | > 100 µM | > 100 µM | 70.6 µM | > 100 µM | > 100 µM | > 100 µM | > 100 µM | > 100 µM | > 100 µM | > 100 µM |  |  | > 100 µM | > 100 µM
